Earlier results on 2 compounds are cited in patent US11235023B2, “Beta-hairpin peptidomimetic with elastase inhibitory activity and aerosol dosage forms thereof” (POLYPHOR AG, priority 2016, dated 2022).

For one series, the target named is T1, neutrophil elastase (Mus musculus, UniProt Q3UP87).
T1 sequence (Q3UP87 27-265): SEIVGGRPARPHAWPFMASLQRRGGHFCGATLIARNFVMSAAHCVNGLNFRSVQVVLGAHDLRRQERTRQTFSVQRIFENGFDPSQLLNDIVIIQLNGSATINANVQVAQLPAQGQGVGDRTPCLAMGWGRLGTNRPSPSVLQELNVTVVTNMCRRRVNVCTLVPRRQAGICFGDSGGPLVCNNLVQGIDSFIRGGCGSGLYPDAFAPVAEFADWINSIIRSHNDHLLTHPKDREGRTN
The settings on record: mouse model of neutrophil allergen challenge; cited from earlier work.

Another series has as its system elastase. The following applies: nasal instillation, CD-1 mice; cited from earlier work.

Consider `CC(C)(C)C(=O)Oc1ccc(S(=O)(=O)Nc2ccccc2C(=O)NCC(=O)O)cc1` [sivelelstat], for which the “Effect on airway hyperresponsiveness and inflammation” value on neutrophil elastase is “attenuates airway hyperresponsiveness and inflammation”.

Regarding “rhalpha1PI: recombinant form of the elastase inhibitor alpha-1-proteinase inhibitor (alpha1PI)”, the “Protection against elastase-mediated injury” value in the series on elastase was “highly protective”.
